Measured values: ChEMBL document CHEMBL3881526, “Selective androgen receptor modulators and method of use thereof” (2007)
Active and inactive are the calls of the source. The calls are words filed in the database; no cut-off is given here.

How the values were obtained:
Rattus norvegicus [1] = assay: Androgenic activity in ORX Sprague-Dawley rat assessed as restoration of seminal vesicles weight at 0.1 to 1 ug/day delivered at constant rate for 14 days via subcutaneous osmotic pumps; format: functional
Rattus norvegicus [2] = assay: Suppression of serum FSH in ORX Sprague-Dawley rat at =>0.3 mg/day delivered at constant rate for 14 days via subcutaneous osmotic pumps; format: functional
Rattus norvegicus [3] = assay: Effect on spleen weight in ORX Sprague-Dawley rat at 0.1 to 1 ug/day delivered at constant rate for 14 days via subcutaneous osmotic pumps; format: ADME, tissue-based; conditions: in vivo, sc, 336 h
Rattus norvegicus [4] = assay: Anabolic activity in ORX Sprague-Dawley rat assessed as restoration of levator ani muscle weight at 0.1 to 1 ug/day delivered at constant rate for 14 days via subcutaneous osmotic pumps; format: functional
[5] = Toxicity in ORX Sprague-Dawley rat assessed as induction of toxicity signs at 0.1 to 1 ug/day delivered at constant rate for 14 days via subcutaneous osmotic pumps by diagnostic hematology test; conditions: in vivo, sc, 336 h
Rattus norvegicus [6] = assay: Androgenic activity in ORX Sprague-Dawley rat assessed as restoration of prostate weight at 0.1 to 1 ug/day delivered at constant rate for 14 days via subcutaneous osmotic pumps; format: functional
Rattus norvegicus [7] = assay: Effect on lung weight in ORX Sprague-Dawley rat at 0.1 to 1 ug/day delivered at constant rate for 14 days via subcutaneous osmotic pumps; format: ADME, tissue-based; conditions: sc, 336 h
[8] = Toxicity in ORX Sprague-Dawley rat assessed as induction of toxicity signs at 0.1 to 1 ug/day delivered at constant rate for 14 days via subcutaneous osmotic pumps by visual examination test; conditions: in vivo, sc, 336 h
Rattus norvegicus [9] = assay: Effect on heart weight in ORX Sprague-Dawley rat at 0.1 to 1 ug/day delivered at constant rate for 14 days via subcutaneous osmotic pumps; format: ADME, tissue-based; conditions: in vivo, sc, 336 h

## C[C@](O)(COc1ccc(F)cc1)C(=O)Nc1ccc([N+](=O)[O-])c(C(F)(F)F)c1
Rattus norvegicus [1]
  Activity: <40%
Rattus norvegicus [2]
  Activity: Active
Rattus norvegicus [3]
  Activity: Non-Toxic
Rattus norvegicus [4]
  Activity: Active
[5]
  Activity: Non-Toxic
Rattus norvegicus [6]
  Activity: <40%
Rattus norvegicus [7]
  Activity: Non-Toxic
[8]
  Activity: Non-Toxic
Rattus norvegicus [9]
  Activity: Non-Toxic
